The test system of test [1] is Cholera toxin evoked increase in baseline Isc. The arrangement: species or system rat.
Test [2] addresses T1, GPR73 (prokineticin 1 receptor) (Homo sapiens, UniProt Q8TCW9).
T1 construct: expressed in transfected cells; host or cells: HEK 293
As to the kind of experiment: PK1 functional assay: Ca2+ mobilization screening for PK1 antagonists on the FLIPR. The format is cell-based. The following applies: HEK 293 GPR73 cells, multiple values = multiple testing; for Ca^2+ Mobilization % Inh @ 10 μM: 10 μM compound; for inhibition at 10 µM: HEK293, 10 μM compound, read-out: Ca^2+ Mobilization % Inh @ 10 μM; for IC50: PK1 ligand preparation at its EC50, read-out: Ca^2+ Mobilization IC50. In outline: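 HEK293 cells expressing human GPR73 were loaded with Calcium Plus dye, then on FLIPR given compound for 4 min 15 s before PK1 ligand at its predetermined EC50. Baseline-subtracted fluorescence over 1 min 45 s gave percent inhibition versus maximal signal; IC50 fitted.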
(In general: Calcium flux is commonly read through the fluorescence of an indicator in the cells.)

Each structure is given as a SMILES string. Values joined by “and” are separate entries in the source; they are usually repeats but may differ in a detail not shown here. Equal entries are not always repeated.

T1 sequence (Q8TCW9 whole entry, species assumed): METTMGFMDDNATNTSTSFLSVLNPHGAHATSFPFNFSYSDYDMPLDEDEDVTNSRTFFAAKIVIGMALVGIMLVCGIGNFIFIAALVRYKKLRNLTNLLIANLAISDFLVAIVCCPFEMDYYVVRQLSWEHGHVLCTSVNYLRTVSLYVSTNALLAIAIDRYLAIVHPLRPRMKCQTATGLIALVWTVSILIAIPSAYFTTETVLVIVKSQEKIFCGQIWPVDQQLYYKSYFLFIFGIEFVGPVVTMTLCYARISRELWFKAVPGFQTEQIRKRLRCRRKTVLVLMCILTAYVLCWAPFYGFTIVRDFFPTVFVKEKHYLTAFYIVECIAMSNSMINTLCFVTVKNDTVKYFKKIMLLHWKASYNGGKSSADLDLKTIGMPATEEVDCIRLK

For `COc1ccc(Cn2c(NCc3cccnc3N)nc(=O)n(Cc3ccc(OC)cc3)c2=O)cc1` [Cpd 3, 6-[(2-Amino-pyridin-3-ylmethyl)-amino]-1,3-bis-(4-methoxy-benzyl)-1H-[1,3,5]triazine-2,4-dione], in test [1], the “suppression of Cholera toxin-evoked increase in Isc (in words)” value was “suppresses” and the “suppression of sustained increase in baseline Isc evoked by Cholera toxin” value is 50-60%. Further, in test [2], the “Ca^2+ Mobilization % Inh @ 10 μM” value is 94% and 100%; the inhibition at 10 µM came out at 83%; the IC50 (as a rule, the concentration needed to halve the response being measured) is 34 nM and 61 nM and 82 nM.

For `COc1ccc(Cn2c(NCc3ncccc3C(F)(F)F)nc(=O)n(Cc3ccc(OC)cc3)c2=O)cc1` [Cpd 236], in test [2], the inhibition at 10 µM stood at 64% and the IC50 worked out at 1270 nM.

Consider `COc1ccc(Cn2c(=O)nc(NCc3cnc(C)cc3C)n(Cc3cccc(OC(F)(F)F)c3)c2=O)cc1` [Cpd 99], for which, in test [2], the inhibition at 10 µM amounted to 91% and the IC50 was 100 nM.

With `Cc1cc(C)c(CNc2nc(=O)n(Cc3ccc4c(c3)CCO4)c(=O)n2Cc2ccc(OC(F)F)cc2)c(N)n1` [Cpd 176], in test [2], the “Ca^2+ Mobilization % Inh @ 10 μM” value turned out to be 98%; the inhibition at 10 µM was 96%; the half-maximal inhibitory concentration (IC50) was 23 nM and 48 nM and 130 nM.

As for `COc1ccc(Cn2c(NCc3cccnc3NCc3ccco3)nc(=O)n(Cc3ccc(OC)cc3)c2=O)cc1` [Cpd 69], in test [2], the inhibition at 10 µM is 93% and the IC50 worked out at 337 nM.

As for `Cc1cc(C)c(CNc2nc(=O)n(Cc3ccc(C#N)cc3)c(=O)n2Cc2ccc(OC(F)F)cc2)cn1` [Cpd 164], in test [2], the inhibition at 10 µM was found to be 64% and the IC50 worked out at 2010 nM.

Regarding `COc1ccc(Cn2c(NCc3cccnc3N)nc(=O)n(Cc3ccc4sccc4c3)c2=O)cc1` [Cpd 145], in test [2], the inhibition at 10 µM came out at 90% and the IC50 stood at 317 nM.

Take `CCN1CCCC1CNc1ncccc1CNc1nc(=O)n(Cc2ccc(OC)cc2)c(=O)n1Cc1ccc(OC)cc1` (stereo not drawn) [Cpd 70]: in test [2], the inhibition at 10 µM is 94% and the IC50 is 560 nM.

For the compound `COc1ccc(Cn2c(NCc3cnc(C)cc3C)nc(=O)n(Cc3ccc4c(c3)OCO4)c2=O)cc1` [Cpd 207], in test [2], the “Ca^2+ Mobilization % Inh @ 10 μM” value came to 93%; the inhibition at 10 µM worked out at 92%; the IC50 was 461 nM and 471 nM.

Regarding `COc1ccc(Cn2c(=O)nc(NCc3cccnc3N)n(Cc3cccc(OC)c3)c2=O)cc1` [Cpd 80], in test [2], the inhibition at 10 µM is 70% and the IC50 came out at 2030 nM.

With `CCOc1ccc(Cn2c(=O)nc(NCc3cnc(C)cc3C)n(Cc3ccc(OC)cc3)c2=O)cc1` [Cpd 107], in test [2], the inhibition at 10 µM turned out to be 89% and the IC50 was found to be 868 nM.

`COc1ccc(Cn2c(NCCc3ccncc3)nc(=O)n(Cc3ccc(OC)cc3)c2=O)cc1` [Cpd 215]: in test [2], the “Ca^2+ Mobilization % Inh @ 10 μM” value is 104% and 68%; the IC50 is 500 nM and 2780 nM.

Consider `COCCCCCn1c(NCc2cccnc2N)nc(=O)n(Cc2ccc(OC)cc2)c1=O` [Cpd 78, 6-[(2-Amino-pyridin-3-ylmethyl)-amino]-3-(4-methoxy-benzyl)-1-(5-methoxy-pentyl)-1H-[1,3,5]triazine-2,4-dione], for which, in test [2], the “Ca^2+ Mobilization % Inh @ 10 μM” value came out at 95%; the inhibition at 10 µM amounted to 94%; the IC50 is 36 nM and 113 nM.

Take `COc1ccc(Cn2c(NCc3c[n+]([O-])c(C)cc3C)nc(=O)n(Cc3ccc(OC)cc3)c2=O)cc1` [Cpd 118]: in test [2], the inhibition at 10 µM amounted to 80% and the IC50 was found to be 1370 nM.

On to `COC(=O)c1ccc(Cn2c(=O)nc(NCc3cnc(C)cc3C)n(Cc3ccc(OC)cc3)c2=O)cc1` [Cpd 114], for which, in test [2], the inhibition at 10 µM was 48% and the IC50 came out at 6310 nM.

Take `COc1ccc(Cn2c(=O)nc(NCc3cccnc3N)n(Cc3cccc([N+](=O)[O-])c3)c2=O)cc1` [Cpd 82]: in test [2], the inhibition at 10 µM came to 38% and the half-maximal inhibitory concentration (IC50) was over 10000 nM.

With `COc1ccc(Cn2c(=O)nc(NCc3cnc(C)cc3C)n(Cc3ccc(OC)c(F)c3)c2=O)cc1` [Cpd 204], in test [2], the inhibition at 10 µM is 102% and the IC50 amounted to 68 nM.

For `Cc1cc(C)c(CNc2nc(=O)n(Cc3ccc4c(c3)CCO4)c(=O)n2Cc2ccc(OC(F)F)cc2)cn1` [Cpd 179], in test [2], the inhibition at 10 µM amounted to 61% and the IC50 turned out to be 4530 nM.

In the case of `COc1ccc(Cn2c(=O)nc(NCc3cnc(C)cc3C)n(Cc3ccc(N4C(=O)c5ccccc5C4=O)cc3)c2=O)cc1` [Cpd 152], in test [2], the inhibition at 10 µM was 91% and the IC50 came out at 240 nM.

For the compound `COc1ccc(Cn2c(=O)nc(NCc3c(C)cc(C)nc3N)n(Cc3ccc4c(c3)CCO4)c2=O)cc1` [Cpd 157], in test [2], the “Ca^2+ Mobilization % Inh @ 10 μM” value was found to be 96%; the inhibition at 10 µM was found to be 92%; the IC50 is 4 nM and 11 nM.

Turning to `COc1ccc(Cn2c(NCc3cccnc3N)nc(=O)n(Cc3ccc(C(F)(F)F)cc3)c2=O)cc1` [Cpd 49], in test [2], the inhibition at 10 µM was 64% and the IC50 is 3170 nM.

Regarding `COc1ccc(Cn2c(=O)nc(NCc3cnc(C)cc3C)n(Cc3ccc(OC(F)F)cc3)c2=O)cc1` [Cpd 193], in test [2], the “Ca^2+ Mobilization % Inh @ 10 μM” value is 39% and the IC50 was over 10000 nM.

`COc1ccc(Cn2c(CCc3cccnc3C(N)=O)cc(=O)n(Cc3ccc(OC)cc3)c2=O)cc1` [Cpd 189]: in test [2], the inhibition at 10 µM was 38% and the half-inhibitory concentration (IC50) was over 10000 nM.

In the case of `COc1ccc(Cn2c(NCc3cccnc3N)nc(=O)n(CCOc3ccc(F)cc3)c2=O)cc1` [Cpd 141, 6-[(2-Amino-pyridin-3-ylmethyl)-amino]-3-[2-(4-fluoro-phenoxy)-ethyl]-1-(4-methoxy-benzyl)-1H-[1,3,5]triazine-2,4-dione], in test [2], the inhibition at 10 µM is 82% and the IC50 turned out to be 1130 nM.

For `CCCNc1ncccc1CNc1nc(=O)n(Cc2ccc(F)cc2)c(=O)n1Cc1ccc(OC)cc1` [Cpd 15], in test [2], the inhibition at 10 µM is 95% and the IC50 is 327 nM.

In the case of `Cc1cc(C)c(CNc2nc(=O)n(CCOc3ccccc3)c(=O)n2Cc2ccc(OC(F)F)cc2)cn1` [Cpd 166], in test [2], the inhibition at 10 µM is 73% and the IC50 was determined as 1700 nM.

`COCCNc1ncccc1CNc1nc(=O)n(Cc2ccc(OC)cc2)c(=O)n1Cc1ccc(OC)cc1` [Cpd 50]: in test [2], the “Ca^2+ Mobilization % Inh @ 10 μM” value was determined as 100%; the inhibition at 10 µM was 91%; the half-maximal inhibitory concentration (IC50) is 24 nM and 72 nM.

`Cc1cc(C)[n+]([O-])c(N)c1CNc1nc(=O)n(Cc2ccc3c(c2)CCO3)c(=O)n1Cc1ccc(OC(F)F)cc1` [Cpd 233, 6-[(2-Amino-4,6-dimethyl-1-oxy-pyridin-3-ylmethyl)-amino]-1-(4-difluoromethoxy-benzyl)-3-(2,3-dihydro-benzofuran-5-ylmethyl)-1H-[1,3,5]triazine-2,4-dione]: in test [2], the “Ca^2+ Mobilization % Inh @ 10 μM” value is 97%; the inhibition at 10 µM worked out at 96%; the IC50 is 69 nM and 130 nM.

Consider `COc1ccc(Cn2c(=O)nc(NCc3cccnc3N)n(Cc3cccc4cc[nH]c34)c2=O)cc1` [Cpd 171], for which, in test [2], the inhibition at 10 µM was 46% and the IC50 is over 10000 nM.

On to `COc1ccc(Cn2c(OCc3c(C)cc(C)nc3N)cc(=O)n(Cc3ccc(OC)cc3)c2=O)cc1` [Cpd 202], for which, in test [2], the inhibition at 10 µM turned out to be 70% and the 50% inhibitory concentration (IC50) is 830 nM.

Take `COc1ccc(Cn2c(NCc3cccc(C(F)(F)F)n3)nc(=O)n(Cc3ccc(OC)cc3)c2=O)cc1` [Cpd 64]: in test [2], the “Ca^2+ Mobilization % Inh @ 10 μM” value is listed as 51%; the inhibition at 10 µM was 50%; the IC50 was 5260 nM and 8510 nM.

Take `COc1ccc(Cn2c(NCCc3ccccn3)nc(=O)n(Cc3ccc(OC)cc3)c2=O)cc1` [Cpd 154]: in test [2], the “Ca^2+ Mobilization % Inh @ 10 μM” value is reported as 80%; the inhibition at 10 µM is 79%; the IC50 was 657 nM and 952 nM.

`COc1ccc(Cn2c(NCc3cnc(C)cc3C)cc(=O)n(Cc3ccc(OC)cc3)c2=O)cc1` [Cpd 61]: in test [2], the “Ca^2+ Mobilization % Inh @ 10 μM” value worked out at 101% and the inhibition at 10 µM came out at 87%.

On to `CSc1ccc(Cn2c(=O)nc(NCc3cnc(C)cc3C)n(Cc3ccc(OC(F)F)cc3)c2=O)cc1` [Cpd 177], for which, in test [2], the inhibition at 10 µM was found to be 79% and the IC50 was determined as 640 nM.

Regarding `COCCCCCn1c(NCc2c(C)cc(C)nc2N)nc(=O)n(Cc2ccc(Cl)c(Cl)c2)c1=O` [Cpd 255], in test [2], the inhibition at 10 µM stood at 99% and the IC50 came out at 78 nM.

In the case of `COC(=O)CCCn1c(NCc2cnc(C)cc2C)nc(=O)n(Cc2ccc(OC)cc2)c1=O` [Cpd 153], in test [2], the inhibition at 10 µM stood at 81% and the IC50 was 703 nM.

`COc1ccc(Cn2c(OCc3ccnc(N)n3)cc(=O)n(Cc3ccc(OC)cc3)c2=O)cc1` [Cpd 232]: in test [2], the inhibition at 10 µM was 33% and the IC50 is over 10000 nM.

For the compound `COc1ccc(Cn2c(=O)nc(NCc3cccnc3N)n(Cc3ccc(SC)cc3)c2=O)cc1` [Cpd 75], in test [2], the inhibition at 10 µM stood at 99% and the IC50 was determined as 131 nM.

Consider `COc1ccc(Cn2c(=O)nc(NCc3cccnc3N)n(Cc3ccc(Cl)c(Cl)c3)c2=O)cc1` [Cpd 151], for which, in test [2], the inhibition at 10 µM worked out at 60% and the 50% inhibitory concentration (IC50) came out at 2400 nM.

As to `COc1ccc(Cn2c(=O)nc(NCc3cccnc3N)n(Cc3cc4ccccc4o3)c2=O)cc1` [Cpd 77], in test [2], the inhibition at 10 µM was 91% and the IC50 amounted to 449 nM.

On to `COc1ccc(Cn2c(NCc3cccnc3N)cc(=O)n(Cc3ccc(OC)cc3)c2=O)cc1` [Cpd 26], for which, in test [2], the inhibition at 10 µM was 84% and the IC50 came out at 45 nM.

For the origin of these results see US20080287445A1, “Prokineticin 2 receptor antagonists” (priority 2005, published 2008).
